The values that follow come from article PMC11435220, “Anticancer Activity of Imidazolyl Gold(I/III) Compounds in Non-Small Cell Lung Cancer Cell Lines” (Pharmaceuticals, 2024).

One assay has as its system H157. The assay is described as follows: MTT viability assay, H157. Format: cell-based, human. Particulars: mean ± span, 48 h treatment, cell line with KRAS mutation. On the procedure:
(§1) NSCLC cell lines were obtained from the Hamon Center for Therapeutic Oncology Research (UT Southwestern Medical Center). IMR-90 human lung fibroblasts were from ATCC (CC-186). All cell lines were maintained and treated in RPMI medium (Cytiva (Shanghai, China), #SH30027), supplemented with 10% heat-inactivated FBS (Millipore Sigma (Darmstadt, Germany), F0394).
(§2) 5000–10,000 cells/0.1 mL/well were seeded in 96-well plates to achieve 70% confluence after 24 h. All drug stock solutions were prepared fresh in DMSO at a concentration of 10 mM. The day after cell plating, we added 0.1 mL of medium containing the appropriate drug dilutions. After 48 h of treatment, 10 μL of MTT solution (5 mg/mL) was added to each well. After 4 h incubation, the medium was aspirated, and the formazan salts dissolved in 200 μL DMSO/well for 10 min at 37 °C. The absorbance was read at 570 nm (OD 570 nm). Data are represented as mean ± SD of two independent experiments.
(§3) Statistical and data analysis was performed using GraphPad Prism (v10). IC50 values were calculated using a three-parameter non-linear regression model with log(inhibitor) vs. response. For the TxrR activity statistics, the groups were compared using a two-way ANOVA followed by Dunnett’s multiple comparisons with alpha = 0.05. The correlation between IC50 values and TxrR activity was achieved using Pearson correlation with alpha = 0.05.
Background: Formazan colour is commonly taken as a measure of viable cells.

For a further assay, the system named is HCC-44. The assay is described as follows: MTT viability assay, HCC-44. Type of assay: cell-based, human. Conditions: mean ± span, 48 h treatment, cell line with KRAS mutation. The method, then:
as §1, §2, §3

Another assay has as its system H1993. In words: MTT viability assay, H1993. Format: cell-based, human. Particulars: mean ± span, 48 h treatment, cell line without KRAS mutation. On the procedure:
as §1, §2, §3

Another assay has as its system H522. In words: MTT viability assay, H522. Format: cell-based, human. Particulars: mean ± span, 48 h treatment, cell line without KRAS mutation. On the procedure:
as §1, §2, §3

The test system of assay [1] is TrxR in A549 cell lysates. In words: Thioredoxin reductase activity in lysates of treated A549 cells. Type of assay: cell-based, human. Particulars: for Mean Diff. TrxR activity vs. veh: A549 lysate, 24 h treatment at 5 μM. The method, then: The enzymatic activity of TrxR in the A549 and H522 cell lysates was measured using the TrxR assay Kit (Abcam ab83463) following the manufacturer’s instructions. This kit is based on the TxrR-mediated reduction of the colorless DTNB into TNB2—(yellow). Briefly, cells were plated to reach 70% confluence on a 100-mm dish in one day. They were treated with 5 μM of the gold compounds or the equivalent quantity of DMSO for 24 h. Then, cells were washed in PBS 1X, detached, and lysed in 100 μL of cold TrxR assay buffer supplemented with the Proteinase Inhibitor Cocktail. 20 μg and 40 μg of total proteins were used for the A549 and the H522, respectively. The DTNB substrate was added to samples with or without TrxR inhibitor (provided with the kit) in 96-well plates. The OD412 was measured soon after the substrate addition (A1) and then after 25, 60, 90, and 110 min (An) at 25 °C using a FLUOstar Omega Microplate Reader (BGM Labtech, Chicago, IL, USA). Data analysis was performed following the manufacturer’s instructions. The OD of TNB2, generated by TrxR in every condition, is:ΔA412 nm = (AnAB − AnINH) − (AB − A1INH) where AB is the assay buffer, and INH is the inhibitor. The TrxR activity is:(2) ΔB/Tn−T1×mg of protein lysate×sample dilution factor=(nmol/min)/mg=mU/mg where ΔB is the TNB amount calculated applying ΔA412 nm to TNB standard curve (in nmol), T1 is the time of the first reading (A1AB, and A1INH) (in min), Tn is the time of the second reading (AnAB and AnINH) (in min). The residual TxrR activity (%) was calculated by normalizing the TxrR activity for each compound with the matching vehicle values at every n time point.
as §3

A further assay has as its system IMR90. In words: MTT viability assay, IMR90 non-transformed lung fibroblasts. Particulars: for selectivity for the NSCLC cell lines over the lung fibroblasts: IMR90 vs NSCLC cell lines, MTT 48 h; for IC50: mean ± span, 48 h treatment, MTT, non-transformed human lung fibroblasts. Format: cell-based, human. The method, then:
as §1, §2, §3

The target in assay [2] is T1, recombinant human DHFR (hDHFR) (Homo sapiens, UniProt P00374).
T1 construct: made in house; host or cells: E. coli BL21, plasmid pET17b (gift of C. Robert Matthews)
T1 sequence (P00374 1-187): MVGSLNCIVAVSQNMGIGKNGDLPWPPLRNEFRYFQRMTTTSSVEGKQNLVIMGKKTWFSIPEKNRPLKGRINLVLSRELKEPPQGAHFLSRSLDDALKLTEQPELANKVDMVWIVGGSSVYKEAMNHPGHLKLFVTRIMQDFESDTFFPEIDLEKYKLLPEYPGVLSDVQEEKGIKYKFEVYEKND
In words: Cell-free human dihydrofolate reductase enzymatic activity. Format: biochemical. Particulars: for effect on hDHFR enzymatic activity: H2F sub-saturating (~20 µM) and close to Km (~3 µM). On the procedure:
Recombinant human DHFR was overexpressed and purified from pET17b (+) encoding the hDHFR gene/BL21 (Novagene® (Hong Kong, China)) E. coli cells as described in the literature. The protein purity was verified as a single band in Coomassie-stained SDS-PAGE. The concentration of the hDHFR was measured spectrophotometrically at 280 nm using the extinction coefficient of 28,400 M^−1 cm^−1 and resulted to be equal to 14 µM. The activity of the DHFR was followed by recording the absorbance over time at 340 nm in a UV-VIS spectrophotometer Shimadzu UV-2450. The procedure consisted of mixing the 50 mM Hepes buffer (pH 7.3) with saturating concentration NADPH ([…]) and […] hDHFR, incubating at 37 °C for 5 min, and starting the reaction by adding H2F at various concentrations. When testing the inhibition capacity of gold complexes, the reaction mixture was prepared by adding increasing concentrations of the tested compounds before the incubation at 37 °C. Since the gold complexes were solubilized in 100% methanol (HPLC-grade, Carlo Erba), the enzymatic activity of hDHFR was also assessed in the presence of the equal volumes of MeOH used in the assays with the gold complexes and eventually subtracted. Data are represented as mean ± SEM of 2 independent experiments and analyzed according to best-fit models using GraphPad Prism (v10).
For the data analysis of hDHFR enzymatic activity, the sigmoidal non-linear fitting model in the GraphPad Prism (v10) was used, in which the concentration of inhibitor was expressed as concentrations: Y = Bottom + (Top − Bottom)/(1 + (IC50/X)^HillSlope). Figures were partially prepared with BioRender (https://app.biorender.com) accessed on 25 July 2024).

Another assay has as its system A549. The assay is described as follows: MTT viability assay, A549. Format: cell-based, human. Particulars: mean ± span, 48 h treatment, cell line with KRAS mutation. On the procedure:
as §1, §2, §3

The test system of assay [3] is human NSCLC cell lines without KRAS mutations. The assay is described as follows: MTT assay, average across NSCLC cell lines without KRAS mutations. Format: cell-based. Particulars: average across cell lines without KRAS mutations (H522, H661, H1395, H1993), 48 h, read-out: IC50 * averaged values. The method, then:
as §1, §2, §3

Read-outs that look alike come from different tables or passages of the source.

On to `Cn1cc[n+](C)[c]1[Au-2]([Cl])[P+](c1ccccc1)(c1ccccc1)c1ccccc1` [Compound 8], for which the IC50 (in general, the concentration at which inhibition is half-maximal) in the assay with H157 turned out to be 17 ± 1.2 µM; in the assay with HCC-44, 7.3 ± 1.05 µM; in the assay with H1993, 1.8 ± 1.05 µM; in the assay on H522 it was 3.3 ± 0.93 µM; with IMR90 it was 87 ± 4.9 µM; in [2] (H2F concentration 3.89 µM, sigmoidal fit, read-out: hDHFR IC50), 15 ± 1.25 µM. Moreover, the IC50 is 14.8 ± 1.25 µM in assay [2] (H2F concentration 22.6 µM, sigmoidal fit, read-out: hDHFR IC50); ~15 µM in [2] (dihydrofolate concentration comparable with the Km, read-out: hDHFR IC50 (conclusions)); 9.1 ± 1.2 µM in the assay with A549; 3 µM in [3]. Besides, in [1] (A549, 24 h treatment, stated for both cell lines), the “TrxR activity reduction / inhibition” value is given as “more than 80%”. Moreover, the “Mean Diff. TrxR activity vs. veh” value in [1] (reading at 25 min) is reported as −86.87%; in assay [1] (reading at 60 min), −80.79%; in [1] (reading at 90 min), −82.25%; in assay [1] (reading at 110 min), −82.25%. Further, in the assay with IMR90, the “selectivity for the NSCLC cell lines over the lung fibroblasts” value is recorded as “good selectivity”. Further, the “effect on hDHFR enzymatic activity” value in [2] is “important inhibitory function”. In addition, the “reduction of the enzymatic activity of hDHFR (conclusions)” value in assay [2] (dihydrofolate concentration comparable with the Km) is recorded as 80%.
For `Clc1n[c]([Au-][P+](c2ccccc2)(c2ccccc2)c2ccccc2)n(Cc2ccccc2)c1Cl` [Compound 7], the IC50 turned out to be 8.5 ± 1.2 µM in the assay with H157; 9.2 ± 1.02 µM with HCC-44; 1.8 ± 0.96 µM with H1993; 6.5 ± 0.97 µM in the assay with H522; 63 ± 2.5 µM in the assay on IMR90; 10.9 ± 9.77 µM in assay [2] (H2F concentration 3.47 µM, read-out: hDHFR IC50). Also, the IC50 in assay [2] (H2F concentration 21.0 µM, read-out: hDHFR IC50) amounted to 23.6 ± 20.7 µM; in the assay on A549 it was 16 ± 1.3 µM; in assay [3], 4 µM. The “Mean Diff. TrxR activity vs. veh” value is −59.2% in [1] (reading at 25 min), −44.4% in assay [1] (reading at 60 min), −56.35% in assay [1] (reading at 90 min) and −53.76% in assay [1] (reading at 110 min). For the same compound, in the assay with IMR90, the “selectivity for the NSCLC cell lines over the lung fibroblasts” value is on record as “good selectivity”. In addition, the “magnitude of inhibition, hDHFR” value in assay [2] (H2F concentration 3.47 µM) and in assay [2] (H2F concentration 21.0 µM) was ~ 50% each time. Besides, the “effect on hDHFR enzymatic activity” value in [2] is reported as “very little effect on the enzymatic activity”.
